Data taken from patent US7780978B2, “Oral pharmaceutical compositions and methods of using the same” (Childrens Hospital Los Angeles, priority 2003, dated 2010).

Assays:
[1] = Steady state plasma and tissue levels of 4-HPR in mice fed or gavaged LXS compositions vs capsule contents (HPLC); type: in vivo; settings: mice, 120, 250 and 560 mg/kg/day
Procedure: FIG. 1. Comparison of 4-HPR in LXS matrix vs Capsule Formulation at 120 mg/kg/day. Cohorts of five mice were feed with 120 mg/kg/day of 4-HPR formulated in various LXS compositions, or 4-HPR expressed from capsules, mixed with mouse chow or Slim-Fast®, divided BID, ×4.5 days. Animals were sacrificed 3 hrs after the last dose and 4-HPR levels in plasma and tissues were assayed by HPLC. […] PLASMA: G1 vs capsule, P=0.006; LYM-X 5.59 vs capsule, P=0.06; LIVER: G1 vs capsule, P=0.013; LYM-X 5.59 vs capsule, P=0.045; LUNGS: G1 vs capsule, P=0.028; G2 vs capsule, P=0.05; KIDNEY: G1 vs capsule, P=0.007; LYM-X 5.59 vs capsule, P=0.06; BRAIN: G1 vs capsule, P=0.01; LYM-X 5.58 vs capsule, P=0.02. Statistical analysis by Student's t-test. Columns, in each set of columns, in sequence from left to right, represent LYM-X 5.57, LYM-X 5.58, LYM-X 5.60, LYM-X 5.59, Capsule Lot #R-6124, LYM-X 5.60 G1 (SLIMFAST™), and LYM-X 5.60 G2 (DI Water).
FIG. 2. Comparison of 4-HPR in LXS™ matrix vs Capsule Formulation at 250 mg/kg/day. […]
To test this hypothesis, we had various LXS™ compositions of 4-HPR prepared that varied in the LPC:MG:FA ratios of the LXS™ matrix. We then feed mice with equal doses of 4-HPR in the LXS™ compositions, or expressed as a slurry from the current oral 4-HPR capsules. […]

[2] = cited from earlier work

dose dependence of 4-HPR plasma and tissue levels [1]: dose-dependent
SMILES: CC1=C(/C=C/C(C)=C/C=C/C(C)=C/C(=O)Nc2ccc(O)cc2)C(C)(C)CCC1 [Fenretinide, all-trans-N-(4-hydroxyphenyl)retinamide]
solubility in aqueous solution [2]: minimally soluble
